From ChEMBL document CHEMBL3352739, “Comparative in vivo evaluation of polyalkoxy substituted 4H-chromenes and oxa-podophyllotoxins as microtubule destabilizing agents in the phenotypic sea urchin embryo assay” (2014)

Legend:
[1] = Growth inhibition of human EKVX cells after 48 hrs by sulforhodamine B assay; type: functional
HOP-62 = assay: Growth inhibition of human HOP62 cells after 48 hrs by sulforhodamine B assay; type: functional; details: HOP-62, 48 h
[2] = Growth inhibition of human HOP92 cells after 48 hrs by sulforhodamine B assay; type: functional; details: HOP-92, 48 h
NCI-H226 = assay: Growth inhibition of human NCI-H226 cells after 48 hrs by sulforhodamine B assay; type: functional; details: NCI-H226, 48 h
NCI-H23 = assay: Growth inhibition of human NCI-H23 cells after 48 hrs by sulforhodamine B assay; type: functional; details: NCI-H23, 48 h
NCI-H322M = assay: Growth inhibition of human NCI-H322M cells after 48 hrs by sulforhodamine B assay; type: functional
NCI-H460 = assay: Growth inhibition of human NCI-H460 cells after 48 hrs by sulforhodamine B assay; type: functional; details: NCI-H460, 48 h
NCI-H522 = assay: Growth inhibition of human NCI-H522 cells after 48 hrs by sulforhodamine B assay; type: functional; details: NCI-H522, 48 h
[3] = Growth inhibition of human COLO205 cells after 48 hrs by sulforhodamine B assay; type: functional; details: COLO 205, 48 h
[4] = Growth inhibition of human HCC2998 cells after 48 hrs by sulforhodamine B assay; type: functional; details: HCC 2998, 48 h
[5] = Growth inhibition of human HCT116 cells after 48 hrs by sulforhodamine B assay; type: functional; details: HCT-116, 48 h
[6] = Growth inhibition of human HCT15 cells after 48 hrs by sulforhodamine B assay; type: functional; details: HCT-15, 48 h
HT-29 = assay: Growth inhibition of human HT-29 cells after 48 hrs by sulforhodamine B assay; type: functional; details: HT-29, 48 h
KM12 = assay: Growth inhibition of human KM12 cells after 48 hrs by sulforhodamine B assay; type: functional; details: KM12, 48 h
SW-620 = assay: Growth inhibition of human SW620 cells after 48 hrs by sulforhodamine B assay; type: functional; details: SW-620, 48 h
SF-268 = assay: Growth inhibition of human SF268 cells after 48 hrs by sulforhodamine B assay; type: functional; details: SF-268, 48 h
[7] = Growth inhibition of human SF295 cells after 48 hrs by sulforhodamine B assay; type: functional; details: SF-295, 48 h
[8] = Growth inhibition of human SF539 cells after 48 hrs by sulforhodamine B assay; type: functional; details: SF-539, 48 h
SNB-19 = assay: Growth inhibition of human SNB19 cells after 48 hrs by sulforhodamine B assay; type: functional; details: SNB-19, 48 h
SNB-75 = assay: Growth inhibition of human SNB75 cells after 48 hrs by sulforhodamine B assay; type: functional; details: SNB-75, 48 h
U-251 = assay: Growth inhibition of human U251 cells after 48 hrs by sulforhodamine B assay; type: functional; details: U-251, 48 h
[9] = Growth inhibition of human LOXIMVI cells after 48 hrs by sulforhodamine B assay; type: functional; details: LOX IMVI
M14 = assay: Growth inhibition of human M14 cells after 48 hrs by sulforhodamine B assay; type: functional; details: M14, 48 h
MDA-MB-435 = assay: Growth inhibition of human MDA-MB-435 cells after 48 hrs by sulforhodamine B assay; type: functional; details: MDA-MB-435, 48 h
SK-MEL-2 = assay: Growth inhibition of human SK-MEL-2 cells after 48 hrs by sulforhodamine B assay; type: functional; details: SK-MEL-2, 48 h
SK-MEL-5 = assay: Growth inhibition of human SK-MEL-5 cells after 48 hrs by sulforhodamine B assay; type: functional; details: SK-MEL-5, 48 h
[10] = Growth inhibition of human UACC257 cells after 48 hrs by sulforhodamine B assay; type: functional; details: UACC-257, 48 h
[11] = Growth inhibition of human UACC62 cells after 48 hrs by sulforhodamine B assay; type: functional; details: UACC-62, 48 h
IGROV-1 = assay: Growth inhibition of human IGROV1 cells after 48 hrs by sulforhodamine B assay; type: functional; details: IGROV-1, 48 h
[12] = Growth inhibition of human OVCAR3 cells after 48 hrs by sulforhodamine B assay; type: functional; details: OVCAR-3, 48 h
[13] = Growth inhibition of human OVCAR4 cells after 48 hrs by sulforhodamine B assay; type: functional; details: OVCAR-4, 48 h
[14] = Growth inhibition of human OVCAR8 cells after 48 hrs by sulforhodamine B assay; type: functional; details: OVCAR-8, 48 h
[15] = Growth inhibition of human NCI-ADR-RES cells after 48 hrs by sulforhodamine B assay; type: functional
SK-OV-3 = assay: Growth inhibition of human SKOV3 cells after 48 hrs by sulforhodamine B assay; type: functional; details: SK-OV-3, 48 h
786-0 = assay: Growth inhibition of human 786-0 cells after 48 hrs by sulforhodamine B assay; type: functional; details: 786-0, 48 h
A498 = assay: Growth inhibition of human A498 cells after 48 hrs by sulforhodamine B assay; type: functional; details: A498, 48 h
ACHN = assay: Growth inhibition of human ACHN cells after 48 hrs by sulforhodamine B assay; type: functional
CAKI-1 = assay: Growth inhibition of human CAKI-1 cells after 48 hrs by sulforhodamine B assay; type: functional; details: CAKI-1, 48 h
[16] = Growth inhibition of human RXF393 cells after 48 hrs by sulforhodamine B assay; type: functional; details: RXF 393, 48 h
SN12C = assay: Growth inhibition of human SN12C cells after 48 hrs by sulforhodamine B assay; type: functional
[17] = Growth inhibition of human UO31 cells after 48 hrs by sulforhodamine B assay; type: functional; details: UO-31, 48 h
[18] = Growth inhibition of human PC3 cells after 48 hrs by sulforhodamine B assay; type: functional; details: PC-3, 48 h
DU-145 = assay: Growth inhibition of human DU145 cells after 48 hrs by sulforhodamine B assay; type: functional; details: DU-145, 48 h
MCF7 = assay: Growth inhibition of human MCF7 cells after 48 hrs by sulforhodamine B assay; type: functional; details: MCF7, 48 h
MDA-MB-231 = assay: Growth inhibition of human MDA-MB-231 cells after 48 hrs by sulforhodamine B assay; type: functional; details: MDA-MB-231, 48 h
[19] = Growth inhibition of human Hs 578T cells after 48 hrs by sulforhodamine B assay; type: functional
[20] = Growth inhibition of human BT549 cells after 48 hrs by sulforhodamine B assay; type: functional; details: BT-549, 48 h
T47D = assay: Growth inhibition of human T47D cells after 48 hrs by sulforhodamine B assay; type: functional
MDA-MB-468 = assay: Growth inhibition of human MDA-MB-468 cells after 48 hrs by sulforhodamine B assay; type: functional; details: MDA-MB-468, 48 h
[21] = Growth inhibition of human H1299 cells after 48 hrs by sulforhodamine B assay; type: functional; details: NCI-H1299, 48 h
Paracentrotus lividus [22] = assay: Antimitotic microtubule destabilizing activity in Paracentrotus lividus L embryos assessed as induction of cleavage alteration
Paracentrotus lividus [23] = assay: Antimitotic microtubule destabilizing activity in Paracentrotus lividus L embryos assessed as induction of cleavage arrest
Paracentrotus lividus [24] = assay: Antimitotic microtubule destabilizing activity in Paracentrotus lividus L embryos assessed as induction of embryo spinning
[25] = Cytotoxicity against human NCI60 cells; type: functional
CCRF-CEM = assay: Growth inhibition of human CCRF-CEM cells after 48 hrs by sulforhodamine B assay; type: functional
HL-60(TB) = assay: Growth inhibition of human HL-60(TB) cells after 48 hrs by sulforhodamine B assay; type: functional; details: HL-60, 48 h
K562 = assay: Growth inhibition of human K562 cells after 48 hrs by sulforhodamine B assay; type: functional; details: K562, 48 h
[26] = Growth inhibition of human MOLT4 cells after 48 hrs by sulforhodamine B assay; type: functional; details: MOLT-4, 48 h
[27] = Growth inhibition of human RPMI8226 cells after 48 hrs by sulforhodamine B assay; type: functional; details: RPMI-8226, 48 h
SR = assay: Growth inhibition of human SR cells after 48 hrs by sulforhodamine B assay; type: functional
A549 = assay: Growth inhibition of human A549/ATCC cells after 48 hrs by sulforhodamine B assay; type: functional; details: A549, 48 h

**Q.** Which GI50 [1] does the source give for `COc1ccc2c(c1)OC(N)=C(C#N)C2c1cc(OC)c(OC)c(OC)c1` (racemic) here?
**A.** 251 nM

**Q.** What about the GI50 (HOP-62) of the same compound?
**A.** 62.6 nM

**Q.** What about the GI50 [2] of the same compound?
**A.** 20.7 nM

**Q.** And the GI50 (NCI-H226)?
**A.** 83.9 nM

**Q.** And the GI50 (NCI-H23)?
**A.** 36.5 nM

**Q.** And the GI50 (NCI-H322M)?
**A.** 48 nM

**Q.** What about the GI50 (NCI-H460) of the same compound?
**A.** 34.4 nM

**Q.** What about the GI50 (NCI-H522) of the same compound?
**A.** 12.3 nM

**Q.** What about the GI50 [3] of the same compound?
**A.** 28.1 nM

**Q.** What about the GI50 [4] of the same compound?
**A.** 28.2 nM

**Q.** And the GI50 [5]?
**A.** 30.6 nM

**Q.** What about the GI50 [6] of the same compound?
**A.** 32.8 nM

**Q.** What about the GI50 (HT-29) of the same compound?
**A.** 27.8 nM

**Q.** What about the GI50 (KM12) of the same compound?
**A.** 25.1 nM

**Q.** What about the GI50 (SW-620) of the same compound?
**A.** 38.8 nM

**Q.** What about the GI50 (SF-268) of the same compound?
**A.** 73.2 nM

**Q.** What about the GI50 [7] of the same compound?
**A.** 25.2 nM

**Q.** And the GI50 [8]?
**A.** 33.5 nM

**Q.** And the GI50 (SNB-19)?
**A.** 86.4 nM

**Q.** What about the GI50 (SNB-75) of the same compound?
**A.** 42.9 nM

**Q.** And the GI50 (U-251)?
**A.** 26.2 nM

**Q.** What about the GI50 [9] of the same compound?
**A.** 34 nM

**Q.** And the GI50 (M14)?
**A.** 25.5 nM

**Q.** And the GI50 (MDA-MB-435)?
**A.** 15 nM

**Q.** What about the GI50 (SK-MEL-2) of the same compound?
**A.** 27.6 nM

**Q.** And the GI50 (SK-MEL-5)?
**A.** 24 nM

**Q.** What about the GI50 [10] of the same compound?
**A.** 37.1 nM

**Q.** What about the GI50 [11] of the same compound?
**A.** 37.9 nM

**Q.** And the GI50 (IGROV-1)?
**A.** 42.5 nM

**Q.** What about the GI50 [12] of the same compound?
**A.** 25.8 nM

**Q.** What about the GI50 [13] of the same compound?
**A.** 80.8 nM

**Q.** What about the GI50 [14] of the same compound?
**A.** 34.5 nM

**Q.** And the GI50 [15]?
**A.** 19.9 nM

**Q.** And the GI50 (SK-OV-3)?
**A.** 33 nM

**Q.** What about the GI50 (786-0) of the same compound?
**A.** 49.4 nM

**Q.** What about the GI50 (A498) of the same compound?
**A.** 20.9 nM

**Q.** What about the GI50 (ACHN) of the same compound?
**A.** 76 nM

**Q.** What about the GI50 (CAKI-1) of the same compound?
**A.** 146 nM

**Q.** What about the GI50 [16] of the same compound?
**A.** 25.9 nM

**Q.** And the GI50 (SN12C)?
**A.** 58.7 nM

**Q.** What about the GI50 [17] of the same compound?
**A.** 1570 nM

**Q.** What about the GI50 [18] of the same compound?
**A.** 42.8 nM

**Q.** And the GI50 (DU-145)?
**A.** 25.2 nM

**Q.** And the GI50 (MCF7)?
**A.** 34.2 nM

**Q.** What about the GI50 (MDA-MB-231) of the same compound?
**A.** 38.1 nM

**Q.** And the GI50 [19]?
**A.** 49 nM

**Q.** What about the GI50 [20] of the same compound?
**A.** 25 nM

**Q.** What about the GI50 (T47D) of the same compound?
**A.** > 100 µM

**Q.** And the GI50 (MDA-MB-468)?
**A.** 21.6 nM

**Q.** And the GI50 [21]?
**A.** 45 nM

**Q.** What about the EC (Paracentrotus lividus [22]) of the same compound?
**A.** 0.01 µM

**Q.** What about the EC (Paracentrotus lividus [23]) of the same compound?
**A.** 0.05 µM

**Q.** What about the EC (Paracentrotus lividus [24]) of the same compound?
**A.** 0.5 µM

**Q.** And the GI50 [25]?
**A.** 45 nM

**Q.** And the GI50 (CCRF-CEM)?
**A.** 33.7 nM

**Q.** What about the GI50 (HL-60(TB)) of the same compound?
**A.** 25.6 nM

**Q.** And the GI50 (K562)?
**A.** 34.3 nM

**Q.** And the GI50 [26]?
**A.** 37 nM

**Q.** And the GI50 [27]?
**A.** 37.9 nM

**Q.** And the GI50 (SR)?
**A.** 27.1 nM

**Q.** And the GI50 (A549)?
**A.** 37.6 nM
